Measurements taken from paper PMC7614683, “A small molecule PI3Kα activator for cardioprotection and neuroregeneration” (Nature, 2023).

Target: T1, PI3Kα E545K mutant (Homo sapiens, UniProt P42336, E545K)
T1 construct: Full-length human p110α was expressed either in a complex with full-length human p85α (for HTS, biochemistry and HDX-MS); 6xHis tag followed by TEV protease site (N); host or cells: Sf9, baculovirus
Experiment: ADP-Glo catalytic activity, oncogenic mutant E545K
Type: biochemical
Experimental: Expression and purification of wild-type p110α (Cambridge MRC Laboratory for Molecular Biology (LMB-MRC) plasmid number OP831) in a complex with full-length p85α (LMB-MRC plasmid OP809) was performed as described. The oncogenic mutants G106V (LMB-MRC plasmid JB35), N345K (LMB-MRC plasmid OP661) and E545K (LMB-MRC plasmid OP663) were also purified using this protocol. Briefly, 10 litres of Spodoptera frugiperda (Sf9) cell culture at a density of 1.0 x 10^6 cells/ml were co-infected with a p85α-encoding virus [LMB-MRC plasmid OP809]. and a virus encoding p110α with an N-terminal 6xHis tag followed by a tobacco etch virus (TEV) protease site [LMB-MRC plasmid OP831]. After a 48 h infection at 27°C, cells were harvested and washed with PBS. […]
For characterisation of the effects of 1938 on in vitro PI3K enzymology, all reactions were performed at room temperature with 384 white-polystyrene plates (Corning #3574). […] Data was expressed as velocity (nmol of ADP generated/nmol of enzyme/sec). […] Luminescence was read using a PHERAstar® plate reader with software version 5.41, and analyses were performed using GraphPad Prism 8/9.

T1 sequence (P42336 whole entry E545K): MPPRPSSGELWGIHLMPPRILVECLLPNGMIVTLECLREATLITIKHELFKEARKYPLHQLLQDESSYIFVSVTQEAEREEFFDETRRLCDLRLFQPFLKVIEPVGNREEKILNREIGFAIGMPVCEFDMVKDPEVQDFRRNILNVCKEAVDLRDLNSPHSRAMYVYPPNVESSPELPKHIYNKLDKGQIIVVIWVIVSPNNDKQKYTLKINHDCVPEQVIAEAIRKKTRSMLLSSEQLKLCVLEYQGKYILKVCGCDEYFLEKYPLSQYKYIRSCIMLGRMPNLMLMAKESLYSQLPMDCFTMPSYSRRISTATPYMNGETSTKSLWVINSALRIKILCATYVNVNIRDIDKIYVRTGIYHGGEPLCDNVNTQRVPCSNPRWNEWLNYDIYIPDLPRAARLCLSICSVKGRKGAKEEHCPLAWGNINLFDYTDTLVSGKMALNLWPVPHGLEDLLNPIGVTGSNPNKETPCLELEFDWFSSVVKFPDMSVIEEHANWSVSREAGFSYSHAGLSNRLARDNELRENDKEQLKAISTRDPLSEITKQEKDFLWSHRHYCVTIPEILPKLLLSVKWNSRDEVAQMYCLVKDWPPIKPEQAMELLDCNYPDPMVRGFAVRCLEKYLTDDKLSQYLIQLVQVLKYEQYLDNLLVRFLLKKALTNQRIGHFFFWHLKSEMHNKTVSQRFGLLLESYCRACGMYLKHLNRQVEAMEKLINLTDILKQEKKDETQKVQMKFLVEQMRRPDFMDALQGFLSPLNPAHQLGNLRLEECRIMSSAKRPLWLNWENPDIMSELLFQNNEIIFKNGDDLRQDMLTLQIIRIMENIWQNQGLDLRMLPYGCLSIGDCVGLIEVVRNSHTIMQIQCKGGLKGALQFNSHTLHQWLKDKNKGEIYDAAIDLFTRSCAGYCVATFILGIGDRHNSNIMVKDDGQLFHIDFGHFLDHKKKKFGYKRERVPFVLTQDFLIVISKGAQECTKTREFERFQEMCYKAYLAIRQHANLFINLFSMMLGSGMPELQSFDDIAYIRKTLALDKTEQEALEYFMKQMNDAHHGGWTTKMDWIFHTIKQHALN
T1 sequence (P27986 whole entry partner): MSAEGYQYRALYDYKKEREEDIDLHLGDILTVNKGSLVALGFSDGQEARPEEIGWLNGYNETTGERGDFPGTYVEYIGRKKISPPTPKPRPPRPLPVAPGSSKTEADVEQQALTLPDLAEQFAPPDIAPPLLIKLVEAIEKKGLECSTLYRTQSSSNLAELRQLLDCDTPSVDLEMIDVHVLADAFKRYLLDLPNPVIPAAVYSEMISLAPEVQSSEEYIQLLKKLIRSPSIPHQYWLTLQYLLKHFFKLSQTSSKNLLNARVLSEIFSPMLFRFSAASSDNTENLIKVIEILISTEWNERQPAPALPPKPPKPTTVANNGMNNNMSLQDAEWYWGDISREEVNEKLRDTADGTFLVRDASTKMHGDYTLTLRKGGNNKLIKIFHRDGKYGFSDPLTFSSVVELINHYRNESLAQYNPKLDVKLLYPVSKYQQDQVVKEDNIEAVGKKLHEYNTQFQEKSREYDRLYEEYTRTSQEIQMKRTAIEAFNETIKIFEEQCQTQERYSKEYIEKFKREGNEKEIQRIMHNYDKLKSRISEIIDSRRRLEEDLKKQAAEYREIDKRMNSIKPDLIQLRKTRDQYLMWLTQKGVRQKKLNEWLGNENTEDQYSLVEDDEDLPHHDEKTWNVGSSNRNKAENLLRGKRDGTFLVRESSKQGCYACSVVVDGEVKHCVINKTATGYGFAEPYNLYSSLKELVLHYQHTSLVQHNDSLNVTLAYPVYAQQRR

In the case of `CCN1CCN(c2ccc(Nc3cc(Nc4cccc5c4N(C(C)=O)CC5)ccn3)cc2)CC1` [Compound 1938], the “activation of E545K mutant” value is reported as “could be further activated by 1938”.
